A short description of this test: Inhibition of amyloid beta (1-40) aggregation by thioflavin T based fluorometric assay.

Molecules are shown by their SMILES. pIC50: −log10 of the molar value.

For `CCN(CCCCCCNC1=CC(=O)C(NCCCCCCN(CC)Cc2ccccc2OC)=CC1=O)Cc1ccccc1OC` [MEMOQUIN], the pIC50 is 5.23.

In turn, `CN(C)[C@@H]1C(O)=C(C(N)=O)C(=O)[C@@]2(O)C(O)=C3C(=O)c4c(O)cccc4[C@@](C)(O)[C@H]3C[C@@H]12` [TETRACYCLINE] had a pIC50 of 4.22.

By pIC50 is commonly meant the IC50 on a negative log10 scale, so that one unit is a factor of ten. Lower therefore signals a large IC50.
